Source: PubChem BioAssay (NCI)
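Method: 48-hour compound exposure of cells in 96-well plates, five concentrations, linear interpolation of endpoints. GI50: concentration for 50% inhibition of growth. TGI: concentration producing complete growth inhibition.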

Key:
Assay in all cases: inhibition of tumour cell growth, NCI panel, 48 h
MDA-MB-468 breast = tested on: MDA-MB-468 breast
MALME-3M melanoma = tested on: MALME-3M melanoma
A549 NSCLC = tested on: A549 NSCLC
CAKI-1 renal = tested on: CAKI-1 renal
HOP-92 NSCLC = tested on: HOP-92 NSCLC
SK-MEL-2 melanoma = tested on: SK-MEL-2 melanoma
HS 578T breast = tested on: HS 578T breast
LOX IMVI melanoma = tested on: LOX IMVI melanoma
SNB-19 CNS = tested on: SNB-19 CNS
DU-145 prostate = tested on: DU-145 prostate
TK-10 renal = tested on: TK-10 renal
NCI-H460 lung = tested on: NCI-H460 lung
BT-549 breast = tested on: BT-549 breast
NCI-H23 lung = tested on: NCI-H23 lung
786-0 renal = tested on: 786-0 renal
RXF 393 renal = tested on: RXF 393 renal
SF-539 CNS = tested on: SF-539 CNS
MDA-MB-231 breast = tested on: MDA-MB-231 breast
SF-295 CNS = tested on: SF-295 CNS
NCI-H226 lung = tested on: NCI-H226 lung
OVCAR-5 ovarian = tested on: OVCAR-5 ovarian
UACC-62 melanoma = tested on: UACC-62 melanoma
KM12 colon = tested on: KM12 colon
SNB-75 CNS = tested on: SNB-75 CNS
T-47D breast = tested on: T-47D breast
PC-3 prostate = tested on: PC-3 prostate
HOP-62 NSCLC = tested on: HOP-62 NSCLC
NCI-H522 lung = tested on: NCI-H522 lung
MCF7 breast = tested on: MCF7 breast
OVCAR-4 ovarian = tested on: OVCAR-4 ovarian
A498 renal = tested on: A498 renal
HCT-116 colon = tested on: HCT-116 colon
U251 CNS = tested on: U251 CNS
COLO 205 colon = tested on: COLO 205 colon
HT29 colon = tested on: HT29 colon
HCC-2998 colon = tested on: HCC-2998 colon
OVCAR-8 ovarian = tested on: OVCAR-8 ovarian
SF-268 CNS = tested on: SF-268 CNS
ACHN renal = tested on: ACHN renal
IGROV1 ovarian = tested on: IGROV1 ovarian
SK-OV-3 ovarian = tested on: SK-OV-3 ovarian
HCT-15 colon = tested on: HCT-15 colon
M14 melanoma = tested on: M14 melanoma
SN12C renal = tested on: SN12C renal
RPMI-8226 leukemia = tested on: RPMI-8226 leukemia

Cn1cc(-c2nonc2-c2cn(C)c3ccccc23)c2ccccc21
GI50 (MDA-MB-468 breast): 0.492 µM
TGI (MDA-MB-468 breast): > 32.4 µM

O=C(Oc1cccnc1)c1ccsc1Nc1ccnc(C(F)(F)F)c1
GI50 (MDA-MB-468 breast): 1.8 µM
TGI (MDA-MB-468 breast): 4.4 µM

CN1CCC(n2cnc(-c3ccc(F)cc3)c2-c2ccnc(N)n2)CC1
GI50 (MDA-MB-468 breast): 3.32 µM
TGI (MDA-MB-468 breast): 21.1 µM

CC(C)(C)c1ccc(C(=O)Nc2sc3c(c2C(N)=O)CCC(=O)C3)cc1
GI50 (MDA-MB-468 breast): 0.506 µM
TGI (MDA-MB-468 breast): 2.09 µM

Cc1cccc(NC(=O)c2sc3nc4c(cc3c2N)CN(Cc2ccccc2)CC4)c1C
GI50 (MDA-MB-468 breast): 0.151 µM
TGI (MDA-MB-468 breast): 11.6 µM

COc1cc2c(c(OC)c1OC)-c1ccc(SC)c(=O)cc1[C@@H](NC1OC(CO)C(O)C(O)C1O)CC2 (stereo partly specified)
GI50 (MDA-MB-468 breast): 0.0343 µM
TGI (MDA-MB-468 breast): > 100 µM

OC(c1cc2cc(Cl)c(Cl)cc2c2cc(C(F)(F)F)ccc12)C1CCCCN1 (stereo unspecified)
GI50 (MDA-MB-468 breast): 1.58 µM
TGI (MDA-MB-468 breast): 2.94 µM

CCOP(=O)(OCC)OC[C@]12CC[C@@H](C)[C@H](C)C1C1=CC[C@@H]3[C@@]4(C)CCCNC(C)(C)[C@@H]4CC[C@@]3(C)[C@]1(C)CC2 (stereo partly specified)
GI50 (MDA-MB-468 breast): 1.39 µM
TGI (MDA-MB-468 breast): 2.91 µM

CC(C)=CCC/C(C)=C/CC/C(C)=C/CC/C=C(\C)CC/C=C(\C)CCC(=O)Nc1ccn(C2OC(CO)C(O)C2(F)F)c(=O)n1 (stereo unspecified)
GI50 (MDA-MB-468 breast): 0.185 µM
TGI (MDA-MB-468 breast): 35.8 µM

COc1ccc(/C=N/NC(=O)Cn2c(-c3ccc(S(C)(=O)=O)cc3)nc3cc(Cl)ccc32)cc1
GI50 (MDA-MB-468 breast): 1.51 µM
TGI (MDA-MB-468 breast): 9.14 µM

COc1ccc2c(c1)OC1=C(C(=O)OC1)C2c1cc(OC)c2c(c1)OCO2 (stereo unspecified)
GI50 (MDA-MB-468 breast): 0.0264 µM
TGI (MDA-MB-468 breast): 0.0987 µM

CC(C)(C)CN1CCn2c(nc3c(N)nccc32)S1
GI50 (MDA-MB-468 breast): 5.38 µM
TGI (MDA-MB-468 breast): 50.3 µM

CCCCCn1sc(=O)n(Cc2ccc(CNC(=O)OCc3ccc4cccc(O)c4n3)cc2)c1=O
GI50 (MDA-MB-468 breast): 1.71 µM
TGI (MDA-MB-468 breast): 3.56 µM

COc1cc(/C=C/C(=O)c2nnn(-c3ccc(Cl)cc3)c2C)cc(OC)c1OC
GI50 (MALME-3M melanoma): 7.35 µM
TGI (MALME-3M melanoma): > 100 µM
GI50 (A549 NSCLC): 6.11 µM
TGI (A549 NSCLC): > 100 µM
GI50 (CAKI-1 renal): 4.46 µM
TGI (CAKI-1 renal): > 100 µM
GI50 (HOP-92 NSCLC): 2.55 µM
TGI (HOP-92 NSCLC): 23.6 µM
GI50 (SK-MEL-2 melanoma): > 100 µM
TGI (SK-MEL-2 melanoma): > 100 µM
GI50 (HS 578T breast): 5.47 µM
TGI (HS 578T breast): > 100 µM
GI50 (LOX IMVI melanoma): 3.06 µM
TGI (LOX IMVI melanoma): > 100 µM
GI50 (SNB-19 CNS): 14.7 µM
TGI (SNB-19 CNS): > 100 µM
GI50 (DU-145 prostate): 3.62 µM
TGI (DU-145 prostate): > 100 µM
GI50 (TK-10 renal): > 100 µM
TGI (TK-10 renal): > 100 µM
GI50 (NCI-H460 lung): 3.59 µM
TGI (NCI-H460 lung): > 100 µM
GI50 (BT-549 breast): 4.23 µM
TGI (BT-549 breast): 84.3 µM
GI50 (NCI-H23 lung): 6.2 µM
TGI (NCI-H23 lung): > 100 µM
GI50 (786-0 renal): 8.67 µM
TGI (786-0 renal): 62 µM
GI50 (RXF 393 renal): 6.39 µM
TGI (RXF 393 renal): > 100 µM
GI50 (SF-539 CNS): > 100 µM
TGI (SF-539 CNS): > 100 µM
GI50 (MDA-MB-231 breast): 3.48 µM
TGI (MDA-MB-231 breast): > 100 µM
GI50 (SF-295 CNS): 41.4 µM
TGI (SF-295 CNS): > 100 µM
GI50 (NCI-H226 lung): 7.53 µM
TGI (NCI-H226 lung): > 100 µM
GI50 (OVCAR-5 ovarian): > 100 µM
TGI (OVCAR-5 ovarian): > 100 µM
GI50 (UACC-62 melanoma): 5.59 µM
TGI (UACC-62 melanoma): > 100 µM
GI50 (KM12 colon): 8.53 µM
TGI (KM12 colon): > 100 µM
GI50 (SNB-75 CNS): 2.83 µM
TGI (SNB-75 CNS): > 100 µM
GI50 (T-47D breast): > 100 µM
TGI (T-47D breast): > 100 µM
GI50 (PC-3 prostate): 3.53 µM
TGI (PC-3 prostate): > 100 µM
GI50 (HOP-62 NSCLC): 11 µM
TGI (HOP-62 NSCLC): > 100 µM
GI50 (NCI-H522 lung): 4.06 µM
TGI (NCI-H522 lung): > 100 µM
GI50 (MCF7 breast): 3.23 µM
TGI (MCF7 breast): > 100 µM
GI50 (OVCAR-4 ovarian): 4.25 µM
TGI (OVCAR-4 ovarian): > 100 µM
GI50 (A498 renal): > 100 µM
TGI (A498 renal): > 100 µM
GI50 (HCT-116 colon): 3.55 µM
TGI (HCT-116 colon): > 100 µM
GI50 (U251 CNS): 4.1 µM
TGI (U251 CNS): > 100 µM
GI50 (COLO 205 colon): > 100 µM
TGI (COLO 205 colon): > 100 µM
GI50 (HT29 colon): 4.1 µM
TGI (HT29 colon): > 100 µM
GI50 (HCC-2998 colon): > 100 µM
TGI (HCC-2998 colon): > 100 µM
GI50 (MDA-MB-468 breast): 3.38 µM
TGI (MDA-MB-468 breast): > 100 µM
GI50 (OVCAR-8 ovarian): 4.15 µM
TGI (OVCAR-8 ovarian): > 100 µM
GI50 (SF-268 CNS): 20.9 µM
TGI (SF-268 CNS): > 100 µM
GI50 (ACHN renal): 5.82 µM
TGI (ACHN renal): > 100 µM
GI50 (IGROV1 ovarian): > 100 µM
TGI (IGROV1 ovarian): > 100 µM
GI50 (SK-OV-3 ovarian): > 100 µM
TGI (SK-OV-3 ovarian): > 100 µM
GI50 (HCT-15 colon): 3.23 µM
TGI (HCT-15 colon): > 100 µM
GI50 (M14 melanoma): 3.59 µM
TGI (M14 melanoma): > 100 µM
GI50 (SN12C renal): 4.15 µM
TGI (SN12C renal): > 100 µM
GI50 (RPMI-8226 leukemia): 2.22 µM
TGI (RPMI-8226 leukemia): > 100 µM
